Data set [1] deals with OVA challenged mice. Nature of the data set: Histopathology score of lung airway changes. Format: in vivo, C57BL/6 mice. To be noted: 0.07% (w/w) in diet; for Histopathology score (Mean ± SEM): Table 8; for Inhibition of allergen-specific remodelling and inflammation of the lung, in words: Example 10. On the procedure: (§1) Body weights were determined, and blood samples collected via the tail vein, prior to assignment of mice to particular diets. After two weeks on an assigned diet mice were immunized with two intraperitoneal (i.p.) injections of 20 μg of OVA (chicken egg albumin grade V; Sigma Chemical Co., St Louis, Mo.) complexed with 2 mg of Imject Alum (Al(OH)3/Mg(OH)2; Pierce Rockford Ill.) in a total volume of 100 μl of PBS on days 0 and 14. Two weeks after the 2nd injection mice were anaesthetized by i.p. injection of a mixture of ketamine and xylazine (Phoenix, Auckland, New Zealand), and challenged intranasally with 100 μg of OVA in 50 μl of PBS. Undiseased control mice were immunized and challenged with PBS using a similar regime. Body weights were determined, and blood, bronchoalveolar lavage (BAL) fluid, and lung tissue samples were collected 6 days after the intranasal challenge. Blood was collected by cardiac puncture after deeply anaesthetizing mice by i.p. injection of a mixture of ketamine and xylazine. Serum was separated from blood samples, and stored at −80° C.
(§2) Following BAL, the right lobes of lungs were immediately frozen in dry ice and stored at −80° C. for protein and Western blot analysis. The left lobes of lungs were fixed in 4% paraformaldehyde in 0.1 M PBS (pH 7.4) overnight and embedded either in optimum cutting temperature compound (OCT, Tissue Tek) and kept frozen at −80° C. until cryosectioning for immunohistochemistry, or in paraffin for routine histopathological analysis. Some were stained with a combined hematoxylin-Biebrich Scarlet solution by Luna's method for eosinophils to detect eosinophil granules (34) or with Alcian Blue-Periodic Acid Schiff for the detection of acid and neutral mucins and identification of goblet cells.
The histopathology score was determined from inspection of alcian blue-PAS stained paraffin embedded sections of the left lung of each animal. Lung inflammation, perivascular/peribronchiolar infiltrates, airway epithelial hypertrophy, goblet-cell hyperplasia, constriction of bronchioles, mucin hypersecretion, and beneficial presence of phagocytic macrophages were graded on a scale of 0 (no change) to 4 (marked change). Each animal received an overall histopathology score based on summation of individual scores for each criteria. All slides were scored in a blinded fashion (blinded to diet treatment/group assignment), and scores were presented as the mean±SEM of 4-6 animals/group.

A further data set concerns OVA-specific IgG1. Nature of the data set: OVA-specific IgG1 in serum by ELISA. Format: in vivo, C57BL/6 mice. The note with it: Table 10; 0.07% (w/w) in diet; OVA challenged mice. How it is done:
as §1
(§3) OVA-specific IgG1 in serum samples was measured by standard ELISA employing 96 well microtitre plates (Nunc Maxisorp). Plates were coated with 100 μl of 0.1 M carbonate buffer, pH 9.5, containing 10 μg/ml of OVA (Sigma) overnight at 4° C. After 3 washes with PBS-T (PBS with 0.05% Tween-20) plates were blocked with 200 μl of 3% BSA in PBS, pH 7.2, at room temperature for 90 min. One hundred microlitres of each serum sample (diluted 1:40) was added in triplicate to the wells, and incubated for 2 h at 37° C. Wells were washed four times with PBS-T and 100 μl of goat anti-mouse IgG1-HRP conjugated antibody (Bethyl Laboratories, USA) was added at 1:50,000 dilution. Plates were incubated for 1 h at 37° C., washed 5 times with PBS-T, and 100 μl of peroxidase enzyme substrate o-phenylene diamine (OPD, Sigma Chemical Co, St Louis, Mo.) was added to each well. The colour reaction was stopped after ˜20 min by addition of 50 μl of 4 M H2SO4 to each well. Absorbance was read at 490 nm in a BioRad microplate ELISA reader. Positive and negative sera were used as controls.
Background: An ELISA detects its analyte on a solid surface through an enzyme-linked reagent.

The test system of data set [2] is OVA challenged mice. In words: Mucus index score: Schiff staining of airway epithelia. Format: in vivo, C57BL/6 mice. The note with it: 0.07% (w/w) in diet; for Suppression (inhibition) of mucus production: Example 9, compared to control diet, significance not reached; for Mucus Index Score (Mean ± SEM): Table 7, scale 0-4. On the procedure: as §1, §2
The level of Schiff staining of airway epithelia was semi-quantitatively determined to give a mucus index score as described (38), but modified in that Schiff staining was scored by microscopic viewing of airways. A minimum of 4 to 6 representative transversely or sagittally sectioned airways were graded per animal using a scale of 0 (no staining), 1 (25% or less of the airway epithelium stained), 2 (26-50% of the airway epithelium stained), 3 (51-75% of the airway epithelium stained), and 4 ([…]). Airways were analysed only when the complete circumference of the airway could be visualized, and those that opened directly into an alveolar space were not included.

In the next data set the test system is OVA-specific IgE. Nature of the data set: OVA-specific IgE in serum by ELISA. Format: in vivo, C57BL/6 mice. The note with it: Table 9; 0.07% (w/w) in diet; OVA challenged mice. On the procedure:
as §1, §3
OVA-specific IgE was measured as for OVA-specific IgG1 except serum samples were diluted 1:5, and OVA was coated on plates at 100 μg/ml (35). A biotin-conjugated rat anti-mouse IgE monoclonal antibody (diluted 1:200; Pharmingen, San Diego, Calif.) was used to detect OVA-specific IgE antibody, and was detected with avidin-HRP conjugate (diluted 1:250) followed by development with OPD.

Data set [3] concerns OVA challenged mice. Nature of the data set: Inflammatory cell infiltration into the lung: total and differential BAL cell counts after OVA challenge. Format: in vivo, C57BL/6 mice. To be noted: Example 8, 0.07% (w/w) in diet; for Reduction in numbers of lymphocytes in BAL / Reduction in numbers of monocytes/macrophages in BAL / Reduction of total BAL cell counts / Suppression of accumulation of eosinophils in BAL: compared to control diet. How it is done:
Eight to nine week old male and female C57BL/6 mice (University of Auckland, New Zealand) were kept on an ovalbumin (OVA)-free normal mouse chow diet from weaning up until they were assigned to a particular diet (control or experimental diet). Each diet group (n=6) contained an equal number of male and female mice. Throughout the study period mice were kept in an air-conditioned room with controlled humidity, temperature, and a 12 h light:dark cycle.
as §1
Bronchoalveolar lavage was performed immediately after euthanasia by flushing 1 ml of PBS containing 1% heat inactivated fetal calf serum (lavage buffer) thrice through the lung and airways of mice via the cannulated trachea. The recovered BAL was pooled for each animal, centrifuged at 1,500 rpm at 4° C., and the supernatant stored at −80° C. The cell pellets were resuspended in 1 ml of lavage buffer, and total cell numbers were counted using a hemocytometer. BAL cells were centrifuged onto poly-L-lysine-coated glass slides using a cytospin, and stained with Diff-Quik stain (Dade Behring Inc. USA). Differential cellular counts were made by counting ≧300 cells under light microscopy (Nikon E200 microscope), using standard morphological criteria.

The test system of a further data set is liver. The note with it: fed to mice at 0.4% w/w for 4 weeks; cited from earlier work.

`CCCCC/C=C\C=C\CCCCCCCCC(=O)O` (single isomer, unassigned) [Synthetic t-10, c-12 CLA isomer Free Fatty Acid, t-10, c-12 CLA, reference compound]: the “Histopathology score (Mean ± SEM)” value with OVA challenged mice [1] is reported as 3.28 ± 0.46. Moreover, in the data set on OVA-specific IgG1, the “IgG Values, Average (allergen-specific IgG responses)” value (shortened to “IgG Values, Average”) turned out to be 1.95. For the same molecule, in the data set with OVA challenged mice [2], the “Suppression (inhibition) of mucus production” value (from here on “Suppression (inhibition)”) is reported as 7% and the “Mucus Index Score (Mean ± SEM)” value was 2.80 ± 1.35. Also, the “IgE Values, Average (allergen-specific IgE responses)” value (“IgE Values, Average” below) in the data set with OVA-specific IgE came out at 1.25.

As for “c-9, t-11 CLA [Synthetic c-9, t-11 CLA isomer Triglyceride]”, the “Histopathology score (Mean ± SEM)” value in the data set on OVA challenged mice [1] worked out at 3.08 ± 0.69. In the data set with OVA-specific IgG1, the “IgG Values, Average” value came out at 1.96. In the data set with OVA challenged mice [2], the “Suppression (inhibition)” value was determined as 15% and the “Mucus Index Score (Mean ± SEM)” value was found to be 2.58 ± 0.94. For the same molecule, the “IgE Values, Average” value with OVA-specific IgE is 1.17. Also, in the data set with OVA challenged mice [3], the “Reduction in numbers of lymphocytes in BAL” value was determined as 43%, the “Reduction in numbers of monocytes/macrophages in BAL” value came to 53%, the “Reduction of total BAL cell counts” value was 56% and the “Suppression of accumulation of eosinophils in BAL” value was 62%.

Consider “t-10, c-12 CLA [t-10, c-12 CLA isomer, reference compound]”, for which, in the data set on OVA challenged mice [1], the “Inhibition of allergen-specific remodelling and inflammation of the lung, in words” value is “not effective”. For the same molecule, the “Effect on the liver, in words” value with liver was “dramatic enlargement of the liver with steatosis”. Further, in the data set with OVA challenged mice [3], the “Eosinophil count compared to the control diet, in words” value is given as “no significant difference”; the “Lymphocyte count compared to the control diet, in words” value is “no significant difference”; the “Monocyte/macrophages count compared to the control diet, in words” value is “no significant difference”; the “Total BAL count compared to the control diet, in words” value is “no significant difference”.

For `CCCCCC/C=C/C=C\CCCCCCCC(=O)O` (single isomer, unassigned) [Synthetic c-9, t-11 CLA isomer Free fatty acid, c-9, t-11 CLA], in the data set on OVA challenged mice [1], the “Inhibition of allergen-specific remodelling and inflammation of the lung, in words” value was “able to significantly inhibit”; the “Histopathology score (Mean ± SEM)” value amounted to 2.02 ± 0.66. For the same molecule, the “Histopathology score (Mean ± SEM)” value in the data set with OVA challenged mice [1] (listed as free fatty acid form of the c-9, t-11 isomer) is 2.02. Besides, the “IgG Values, Average” value in the data set on OVA-specific IgG1 was 1.91. In the data set on OVA challenged mice [2], the “Suppression (inhibition)” value is 32% and the “Mucus Index Score (Mean ± SEM)” value is reported as 2.04 ± 1.13. The “IgE Values, Average” value in the data set with OVA-specific IgE worked out at 0.89. In the data set with OVA challenged mice [3], the “Reduction in numbers of lymphocytes in BAL” value was determined as 72%, the “Reduction in numbers of monocytes/macrophages in BAL” value came out at 61%, the “Reduction of total BAL cell counts” value was 74% and the “Suppression of accumulation of eosinophils in BAL” value was 87%.

Regarding “t-10, c-12 CLA [Synthetic t-10, c-12 CLA isomer Triglyceride, reference compound]”, the “Histopathology score (Mean ± SEM)” value with OVA challenged mice [1] is 3.20 ± 0.79. The “IgG Values, Average” value with OVA-specific IgG1 is on record as 1.98. Besides, in the data set on OVA challenged mice [2], the “Suppression (inhibition)” value is 15% and the “Mucus Index Score (Mean ± SEM)” value is 2.57 ± 1.16. For the same molecule, the “IgE Values, Average” value with OVA-specific IgE was found to be 1.29.

The values above are taken from patent US20080193550A1, “Cla-Enriched Milkfat and Uses Thereof” (FONTERRA CORPORATE RESEARCH AND DEVELOPMENT LIMITED, priority 2004, published 2008).
